Reference: publication PMC5820112 (Journal of molecular and cellular cardiology, 2017)

What was measured:
[1] = molecular target: T1, CaMKIIδ (Ca2+/calmodulin-dependent protein kinase II delta) (Homo sapiens, UniProt Q13557); experiment: continuous coupled spectrophotometric kinase assay with autocamtide-3; format: biochemical
[2] = molecular target: T1, CaMKIIδ (Ca2+/calmodulin-dependent protein kinase II delta); experiment: as above; format: biochemical; remark: listed apart in the source

T1 sequence (Q13557 2-499): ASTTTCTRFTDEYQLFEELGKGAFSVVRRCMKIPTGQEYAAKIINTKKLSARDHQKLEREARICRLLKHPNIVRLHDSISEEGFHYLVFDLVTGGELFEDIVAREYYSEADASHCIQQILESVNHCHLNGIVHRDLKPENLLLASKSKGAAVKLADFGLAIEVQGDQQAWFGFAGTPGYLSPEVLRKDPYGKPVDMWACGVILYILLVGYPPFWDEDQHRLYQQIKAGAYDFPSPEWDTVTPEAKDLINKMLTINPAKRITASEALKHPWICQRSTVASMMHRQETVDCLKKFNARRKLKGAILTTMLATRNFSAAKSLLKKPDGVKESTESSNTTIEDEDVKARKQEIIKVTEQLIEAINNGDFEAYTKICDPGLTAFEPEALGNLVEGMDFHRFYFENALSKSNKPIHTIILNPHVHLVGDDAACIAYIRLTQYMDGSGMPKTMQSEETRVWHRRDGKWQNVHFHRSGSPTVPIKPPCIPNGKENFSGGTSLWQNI

Compound | IC50 [1] [nM] | Ki [2] [nM]
COc1ccc(S(=O)(=O)N(CCO)c2ccccc2CN(C)C/C=C/c2ccc(Cl)cc2)cc1 [KN-93] | 1400 | 
AS105 |  | 3
